Data taken from patent publication US10251949B2, “Stabilized HIV-1 peptide constructs comprising the gp120 C5 domain and gp41 hydrophilic domain” (Bionor Immuno AS, priority 2009, dated 2019).
Bridge positions count the residues as written; N and C are the ends. Ends that are not written are not given here. I, II: the chains in the order shown.

How the values were obtained:
[1] = tested on: sera from rabbits immunized with BI400-B binding to C5/gp41 (015/201); assay: Competitive ELISA for rabbit sera after immunization with BI400-B; details: for inhibition of antibody binding to C5/gp41 (015/201): antigen 10-1000 μM preincubated with rabbit serum 4° C. overnight, FIG. 3
Method: 50-100 μl of a mixture of BI400-015 and -201 (pre-incubated in Coating buffer—0.05M Na2CO3 pH9.6; denoted CB—in cold at 16 μg/ml for each peptide 1-3 days prior to coating) or just CB (background control) was used for coating wells in microtiter plates at 4° C. overnight. Plates were then washed 3× with washing buffer (PBS+1% v/v Triton-X100; denoted WB), followed by 2 h blocking at room temperature (RT) with 200 μl/well of blocking buffer (PBS+1% w/v BSA). Plates were then washed 3× with WB, followed by 1 h incubation at 37° C. with 60-100 μl/well of added rabbit serum samples (diluted 1:10-1:250 final concentration) preincubated together (4° C. overnight) with serial dilutions (ranging from 10-1000 μM final concentration) of 400-SEQ.B, BI400-015, BI400-201, BI400-204d, recombinant gp41 (Shin-Won Scientific, SWO 102 gp41), BI301-23 (irrelevant protein; control), no peptide (i.e. PBS; control), LTNP-sera pools (diluted 1:10 final concentration), or Blood donor sera-pools (diluted 1:10 final concentration; control). Plates were then washed 6× with WB, followed by 1 h incubation at RT with 70 μl/well of Alkaline Phosphatase-conjugated Goat-anti-Rabbit-Ig (6 μg/ml; Dako D0487). Plates were then washed 6× with WB, followed by 10-60 min incubation at RT with 100 μl/well of 0.3% w/v of Phenoftalein monophosphate (Sigma P-5758). Plates were finally quenched by adding 100 μl/well of Quench solution (0.1M TRIS+0.1M EDTA+0.5M NaOH+0.01% w/v NaN3; pH14), followed by ELISA reader (ASYS UVM 340) at 550 nm.

C5/gp41 (015/201) = assay: Rabbit immunization with BI400-B vaccine, serum ELISA; type: in vivo; details: rabbits immunized intradermally weeks 0, 2 & 6, 500 μg in Freund's adjuvant; in the presence of PBS; FIG. 3
Method: New Zealand White female rabbits (n=3) were immunized intradermally at weeks 0, 2 & 6 with 1 ml of BI400-B vaccine consisting of 500 μg BI400-B in 50% V/V Freund's adjuvant (i.e. Complete Freund's adjuvant used for priming, followed by boostings with Incomplete Freund's adjuvant). Individual blood serum was isolated for ELISA.
50-100 μl of a mixture of BI400-015 and -201 (pre-incubated in Coating buffer—0.05M Na2CO3 pH9.6; denoted CB—in cold at 16 μg/ml for each peptide 1-3 days prior to coating) or just CB (background control) was used for coating wells in microtiter plates at 4° C. overnight. Plates were then washed 3× with washing buffer (PBS+1% v/v Triton-X100; denoted WB), followed by 2 h blocking at room temperature (RT) with 200 μl/well of blocking buffer (PBS+1% w/v BSA). […] Plates were finally quenched by adding 100 μl/well of Quench solution (0.1M TRIS+0.1M EDTA+0.5M NaOH+0.01% w/v NaN3; pH14), followed by ELISA reader (ASYS UVM 340) at 550 nm.

individual human sera = assay: ELISA plate seroreactivity of individual human sera (LTNP, HIV chronically infected, blood donors); type: binding; details: FIG. 2, OD
Method: Seroreactivities of individual LTNP patient sera to SEQ ID NO: 47 (16 μg) alone and in combination with SEQ ID NO: 6 (16 μg) were determined using an ELISA plate as a solid support. Sheep anti-C5 antibodies were used as a positive control. Optical density (OD) at […] was used as a read out following the enzymatic reaction from protein G coupled to alkaline phosphatase.

Substance	inhibition of antibody binding to C5/gp41 (015/201) [1]	binding of sera from immunized rabbits to C5/gp41 peptides (C5/gp41 (015/201))	cross competition of anti-C5/gp41 rabbit sera by LTNP-sera pools ([1]; LTNP-sera pools diluted 1:10, FIG. 4)	magnitude of response among LTNP patients compared to patients chronically infected with HIV (individual human sera; individual sera)	responses in blood donors (individual human sera; negative control sera)
201: gp41 peptide (DRPEGIEEEGGERDR) [compound 201]	could be inhibited	–	–	–	–
BI400-B: SEQ ID NO: 38 and SEQ ID NO: 39 linked via Cys and Lys residues; vaccine antigen (chain 1 GAKRRVVGGCGGAKRRVVQREKRAGEREKRA; chain 2 GKGGIEEEGGRDRDRGGEQDRDR; bridge I:10-II:2 (inferred))	could be inhibited	bound to peptides corresponding to C5/gp41 (015/201)	competitively inhibited	–	–
APTKAKRRVVQREKR (Artificial sequene) [SEQ ID NO: 47]	–	–	–	greater response	consistently low
GGAIVNGSLADDDIVI [204d, peptide derived from C2]	could be inhibited	–	–	–	–
